Values of other authors, collected in patent US11992527B2, “Extracellular vesicles for vaccine delivery” (LONZA SALES AG, priority 2019, dated 2024).
pIC50: −log10 of the molar value.

Tests used:
[1] = Phase 2 study (Palmer 2018)
mouse LPA-1/CHO cells = conditions: in vitro, read-out: IC50, inhibition of LPA-1-induced chemotaxis
[2] = test system: human A2058 melanoma cells; conditions: in vitro, read-out: IC50, inhibition of LPA-1-induced chemotaxis
[3] = test system: LPA-induced histamine release; conditions: in mice
[4] = test system: BALF collagen and protein; macrophage and lymphocyte infiltration induced by bleomycin
[5] = in vivo

Structure (SMILES)	toxicity that led to early termination of the Phase 2 study [1]	pIC50 (mouse LPA-1/CHO cells)	pIC50 [2]	ED50, block of LPA-induced histamine release [3] [mg/kg]	ED50, reduction of BALF collagen and protein ([4]; in lungs) [mg/kg]	macrophage and lymphocyte infiltration induced by bleomycin ([4]; in mice)	oral bioavailability [5]
Cc1noc(-c2ccc(-c3ccc(C4(C(=O)O)CC4)cc3)cc2)c1NC(=O)O[C@H](C)c1ccccc1 [AM152, Cyclopropanecarboxylic acid, 1-[4′-[3-methyl-4-[[[(1R)-1-phenylethoxy]carbonyl]amino]-5-isoxazolyl][1,1′-biphenyl]-4-yl]-]	gall bladder toxicity and early signs of liver toxicity	–	–	–	–	–	–
Cc1noc(-c2ccc(-c3ccc(CC(=O)O)cc3)cc2)c1NC(=O)O[C@H](C)c1ccccc1 [AM095, 1,1′-Biphenyl]-4-acetic acid, 4′-[3-methyl-4-[[[(1R)-1-phenylethoxy]carbonyl]amino]-5-isoxazolyl[ ]-]	–	6.11	6.64	8.3	10	decrease both macrophage and lymphocyte infiltration	orally bioavailable
